The nature of series [1]: Mouse brain pharmacokinetic study (brain-to-plasma partition). It is filed as in vivo. The settings on record: male, single oral dose 20 mg/kg. As for the experimental part: Five groups of n = 3 male CD1 mice (weight 20–30 g, age 6–8 weeks old) were dosed by oral gavage with 20 mg/kg of VEN-02XX suspended in 0.5% w/v methylcellulose/0.1% w/v Tween 80, at a dose volume of 10 mL/kg. Food and water were available ad libitum to all animals. At a specific timepoint for each group (0.25, 1, 2, 4, and 8 h), 0.2 mL of blood was collected from the dorsal metatarsal vein and transferred into plastic micro centrifuge tubes with EDTA-K2 as anticoagulant, then animals were terminally anaesthetized with a rising concentration of CO2 gas for about 1 min, brains were collected and rinsed with cold PBS. […]
Concentrations of VEN-02XX in plasma and brain were determined by a LC-MS/MS assay. […] Two transitions were monitored for VEN-02XX and the more sensitive transition with less interference (397.1 –> 270.1) was used for quantification.
Pharmacokinetic parameters were determined by non-compartmental analysis using WinNonLin software (Phoenix^TM, version 8.3), and the following parameters were calculated from the plasma concentrations versus time data: T1/2, Cmax, Tmax, AUCinf, AUClast. When appropriate, the brain Kp was calculated as AUClast(brain)/AUClast(plasma). Free brain partition coefficient (Kpuu) was calculated using the free fraction in plasma and brain measured in a high throughput equilibrium dialysis assay.

The next series has as its system 5XFAD/Rubicon KO mice. Kind of series: Sucrose preference test in 5XFAD/Rubicon KO mice. It is filed as in vivo, mouse. On the procedure:
5XFAD/Rubicon KO mice received vehicle (0.5% w/v methylcellulose/0.1% w/v Tween® 80 in water) or VEN-02XX (0.01, 1, or 20 mg/kg) every day by oral gastric gavage for 9 weeks.
Basal preference to sucrose was first assessed on all enrolled mice. Individually housed mice were acclimated to the testing room for 48 h and to the two-bottle setup, where both bottles contained water, for 3 days. A 2% sucrose solution replaced the water in one bottle, and water consumption was measured for 4 consecutive days, while rotating the position of the sucrose-containing bottle. At the end of the testing period, both bottles were measured, and sucrose preference was calculated by dividing the intake from the sucrose bottle by the intake from both bottles, expressed as the percentage of sucrose preference. Preference to sucrose was re-assessed at 6- and 9-weeks following dosing with VEN-02XX. The test was performed as described above, with one bottle switched for 3% sucrose water. As before, bottles were rotated daily to reduce bias and leakage concerns, and the consumption was monitored for 4 days.

Series [2] concerns NLRP3 inflammasome, IL-18 in iPSC-derived microglia. Kind of series: iPSC-derived microglia in vitro assay, secreted IL-18. It is filed as cell-based. Conditions: geometric mean, n = 5. On the procedure: iPSC-derived microglia (BX-0900, BrainXell, Madison, WI) were thawed and recovered as per the supplier’s instructions. Briefly, viable cells were counted post-thaw using Trypan Blue, 0.4% (Thermo Fisher Scientific) and 25,000 cells were seeded on poly-d-lysine coated 96-well plates in DMEM-F/12 medium (Thermo Fisher Scientific) supplemented with 1X B-27 supplement (Thermo Fisher Scientific), 1X N-2 supplement (Thermo Fisher Scientific), 1X Non-essential amino acids (Thermo Fisher Scientific), 1X Chemically defined lipid mix (Thermo Fisher Scientific), 1 mM GlutaMax (Thermo Fisher Scientific), 0.2 mM Ascorbic Acid (Millipore), 100 ng/mL IL-34 (PeproTech, Cranbury, NJ), 2 ng/mL TGF-β1 (PeproTech) and 20 ng/mL M-CSF (PeproTech). Fresh media was added 3 days after seeding, half of which was replenished with fresh media 6 days following seeding. The assay was performed 7 days after cells were seeded in 96-well plates. Two assay protocol variations were performed: cells were either pre-treated with VEN-02XX to block NLRP3 inflammasome formation and then primed with LPS (Fig. 1, D. Compound added before LPS priming) or were primed with LPS and then treated with VEN-02XX (Fig. 1, D. Compound added after LPS priming). For compound treatment, cells were treated with VEN-02XX for 1 h (top concentration 100 µM; 3-fold titration) to block NLRP3 inflammasome formation. […]

Each structure is given as a SMILES string.

`CC(C)(O)CNc1nnc(-c2ccc(Cl)cc2C(F)(F)F)c2ccncc12` [VEN-02XX]: the Kp in series [1] (CD1, brain and plasma (total), AUClast (total drug), read-out: total brain-to-plasma partition coefficient, Kp) was 0.86. In series [1] (CD1, brain and plasma (unbound), AUClast (free drug), read-out: unbound brain-to-plasma partition coefficient, Kp,uu brain), the Kp uu is 0.39. Further, in the series with 5XFAD/Rubicon KO mice (6 and 9 weeks, sucrose preference test), the water consumption entry is “no changes in water consumption”. Moreover, the “sucrose preference (anhedonia)” value is given as “significant improvement” in the series on 5XFAD/Rubicon KO mice (6 weeks post-dose initiation, 20 mg/kg PO QD); “trending reversal in the pre-dosing anhedonia” in the series on 5XFAD/Rubicon KO mice (6 weeks post-dose initiation, lower doses (0.01, 1 mg/kg) PO QD); “significant improvements” in the series on 5XFAD/Rubicon KO mice (9 weeks, 1 mg/kg and 20 mg/kg PO QD, dose-dependent). Also, the IC50 in series [2] (compound added after LPS priming) worked out at 220 nM; in series [2] (compound added before LPS priming), 280 nM.

A word on the Kp: it is tissue or fluid exposure divided by exposure in the circulation. One may read the IC50 as the concentration that inhibits the measured activity by half. Read a high IC50 as weaker potency.
